Assay results: patent publication US20030065176A1, “Factor xa inhibitors with aryl-amidines and derivatives, and prodrugs thereof” (priority 2000, published 2003)
pKi: −log10 of the molar value. Counter-ions that a name gives are not always drawn. Like-named read-outs stand apart in the source and are kept apart here. Blank lines part the entries; values can stand above or below the compound they belong to.

Legend:
[1] = biological target: human thrombin (Homo sapiens, UniProt P00734); assay: Thrombin inhibition assay (selectivity against thrombin); type: biochemical; settings: for Selectivity (thrombin/FXa): ratio of Ki values; for pKi: read-out: Inhibition ability against thrombin Ki
Protocol: The FXa inhibiting selectivity of the compound according to the present invention to thrombin is measured as follows. The inhibition effect of the compound of formula 1 to thrombin is measured in Ki value by practicing the same method as the above measuring method of FXa inhibiting activity, and the rate of thrombin/FXa is obtained. At this time, the experimental method of thrombin is the same as that of FXa, except that Chromozyme TH (Tosyl-Gly-Pro-Arg-nitroanilide acetate) is used as the substrate.
Inhibiting ability of a compound according to the present invention against thrombin activity was measured as follows.
In 1.5 mL cuvette, 0.1M tris buffer solution (pH 7.8) comprising 150 mM NaCl, and 0.1% PEG 8000 (molecular weight 8000) was placed by 1160 uL. Chromozyme X was dissolved in dimethylsulfoxide (DMSO) to be 0.1 mM, and diluted with the above buffer solution to be 0.1 mM to prepare the substrate solution. 225 uL of 0.1 mM substrate solution as prepared above was added to cuvette. The compound of the present invention was dissolved in DMSO to be 10 mM, and diluted with the above buffer solution to be 0.1 mM, 0.01 mM and 0.001 mM, respectively, to prepare an inhibitor solution. The inhibitor solution was taken in an amount from 0 to 20 uL, and supplemented with tris buffer solution up to 20 uL of total volume of the solution to add to the cuvette.
15 uL of human thrombin, which was dissolved in the above tris buffer solution to be 0.1 mg/mL, was added to the cuvette having the reaction solution at room temperature to begin enzyme hydrolysis. The amount of para-nitroanilide produced for 2 minutes after adding enzyme was monitored about variation of absorbency at 381 nm to depict continuous spectrum of reaction time to absorbency. The above experiment was repeated for various concentrations of inhibitor to obtain consecutive spectrum.
The initial velocity Vi was calculated from gradient within 30 sec of the reaction time in each spectrum. A graph was depicted for a reciprocal of the initial velocity to inhibitor concentration (1/Vi). A linear equation corresponding to points on the graph was obtained. Thereafter, Ki may be calculated by using enzyme reaction equation from x intercept.

[2] = biological target: T1, trypsin (UniProt P00760); assay: Trypsin inhibition assay (selectivity against trypsin); type: biochemical; settings: read-out: Inhibition ability against trypsin Ki
T1 construct: other: A1: cyclopropyl scaffold; other: A2: pyrrole scaffold; other: A3: bicyclic scaffold; other: A4: cyanophenylalanine scaffold
T1 sequence (P00760 1-246): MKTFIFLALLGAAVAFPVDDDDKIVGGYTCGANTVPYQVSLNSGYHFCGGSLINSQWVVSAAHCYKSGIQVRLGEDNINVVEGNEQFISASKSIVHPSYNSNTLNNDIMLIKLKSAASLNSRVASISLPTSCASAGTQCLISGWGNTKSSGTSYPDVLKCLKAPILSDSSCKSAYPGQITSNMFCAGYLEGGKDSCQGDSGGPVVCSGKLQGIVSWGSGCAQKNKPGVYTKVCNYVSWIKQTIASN
Protocol: (§1) The FXa inhibition selectivity of the compound according to the present invention to trypsin is measured as follows. The inhibition effect of the compound of formula 1 to trypsin is measured in Ki value by practicing the same method as the above measuring method of FXa inhibiting activity, and the rate of trypsin/FXa is obtained. At this time, the experimental method of thrombin is the same as that of FXa, except that N-benzoyl-Val-Gly-Arg-p-nitroanilide hydrochloride is used as the substrate.
(§2) Inhibition activity of a compound according to the present invention was measured by performing the experiment as explained above concerning FXa.
(§3) 20 uM solution of N-benzoyl-Val-Gly-Arg-p-nitroanilide hydrochloride was used as a substrate. An inhibitor solution with various concentrations in the range of 0 to 120 uM was used. Trypsin was dissolved in 0.1N HCl, and supplemented with the above tris buffer solution to be 45 ug/mL. Thereafter, 40 uL of the trypsin solution was used. The remaining procedure and the used amounts of materials (for example, […] of total volume of the reaction solution) and the like were the same as those of the experiment for thrombin. Also, Km was decided in the same method as used in Ki calculation.

[3] = test system: trypsin; assay: as above; type: biochemical; settings: ratio of Ki values
Protocol: as §1, §2, §3

[4] = background art; cited from earlier work
[5] = biological target: FXa (Homo sapiens, UniProt P00742); settings: background art; cited from earlier work
[6] = A4: cyanophenylalanine scaffold

Chain of FXa (P00742 235-488 limits assumed): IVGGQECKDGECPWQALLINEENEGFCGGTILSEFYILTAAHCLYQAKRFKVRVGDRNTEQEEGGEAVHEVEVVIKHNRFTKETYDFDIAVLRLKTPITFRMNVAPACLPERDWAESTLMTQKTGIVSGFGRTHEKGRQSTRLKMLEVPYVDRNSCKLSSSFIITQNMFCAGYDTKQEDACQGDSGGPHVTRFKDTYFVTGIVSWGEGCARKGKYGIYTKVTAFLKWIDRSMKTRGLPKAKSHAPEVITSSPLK
Chain of FXa (P00742 41-179 limits assumed): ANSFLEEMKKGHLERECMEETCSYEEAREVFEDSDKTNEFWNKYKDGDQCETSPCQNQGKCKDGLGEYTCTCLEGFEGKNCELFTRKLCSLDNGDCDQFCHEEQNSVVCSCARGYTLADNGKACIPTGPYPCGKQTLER

Compound: 4-(2-cyanophenyl)-phenyl N-carboxymethyl)-3-(3-aminoiminomethylphenyl)alanine amide trifluoroacetic acid salt [Compound No. A4-10]
- Selectivity (thrombin/FXa) [1, 6]: 14
- pKi [1, 6]: 5.77

Compound: 4-(4-Aminoiminomethylbenzyl)-1-(3-aminoiminomethylhydroxy-benzyl)-pyrrole-3-carboxylic acid bis trifluoroacetic acid salt [Compound No. A2-30]
- Selectivity (thrombin/FXa) ([1]; A2: pyrrole scaffold): 190

Compound: Cc1ccc(S(N)(=O)=O)c(-c2ccc(NC(=O)[C@@H]3C[C@H]3c3cccc(C(=N)N)c3)cc2)c1.O=C(O)C(F)(F)F (relative stereo) [Compound No. A1-3, 4-(2-aminosulfonyl-5-methyl-phenyl)-phenyl trans 2-(3-aminoiminomethylphenyl-cyclopropane-1-carboxamidemonotrifluoroacetic acid salt]
- pKi ([1]; A1: cyclopropyl scaffold): 6.28
- pKi ([2]; A1: cyclopropyl scaffold): 6.92

Compound: Cc1ccc(S(N)(=O)=O)c(-c2ccc(NC(=O)[C@@H]3C[C@H]3c3cccc(C(=N)N)c3)cc2)c1.O=C(O)C(F)(F)F (relative stereo) [Compound No. A1-3]
- Selectivity (thrombin/FXa) ([1]; A1: cyclopropyl scaffold): 5
- Selectivity (trypsin/FXa) ([3]; A1: cyclopropyl scaffold): 0.94

Compound: Cc1ccc(S(N)(=O)=O)c(-c2ccc(NC(=O)[C@@H]3C[C@@H]3c3cccc(C(=N)N)c3)cc2)c1.O=C(O)C(F)(F)F (relative stereo) [Compound No. A1-4, 4-(2-aminosulfonyl-5-methyl-phenyl)-phenyl cis-2-(3-aminoiminomethylphenyl)-cyclopropane-1-carboxamide mono trfluoroacetic acid salt]
- Selectivity (thrombin/FXa) ([1]; A1: cyclopropyl scaffold): 127
- pKi ([1]; A1: cyclopropyl scaffold): 6.42

Compound: N#Cc1ccccc1-c1ccc(NC(=O)[C@@H]2C[C@@H]2c2cccc(C(=N)N)c2)cc1.O=C(O)C(F)(F)F (relative stereo) [Compound No. A1-7, 4-(2-cyanophenyl)-phenyl [1,2]-cis, [2,3]-cis-2-(3-aminoiminomethylphenyl)cyclopropane-1-carboxamide mono trifluoroacetic acid salt]
- Selectivity (thrombin/FXa) ([1]; A1: cyclopropyl scaffold): 400
- pKi ([1]; A1: cyclopropyl scaffold): 5.70
- pKi ([2]; A1: cyclopropyl scaffold): 6.70
- Selectivity (trypsin/FXa) ([3]; A1: cyclopropyl scaffold): 40

Compound: CCOC(=O)c1cn(Cc2ccccc2)cc1Cc1ccc(C(=N)N)cc1.O=C(O)C(F)(F)F [Compound No. A2-1, Ethyl 4-(4-aminoiminomethylbenzyl)-benzyl-pyrrole-3-carboxylate trifluoroacetic acid salt]
- Selectivity (thrombin/FXa) ([1]; A2: pyrrole scaffold): 0.1

Compound: CCOC(=O)c1cn(Cc2ccc(-c3ccccc3)cc2)cc1Cc1cccc(C(=N)N)c1.O=C(O)C(F)(F)F [Compound No. A2-19, Ethyl 4-(3-aminoiminomethylbenzyl)-1-(4-biphenylmethyl)-pyrrole-3-carboxylate trifluoroacetic acid salt]
- Selectivity (thrombin/FXa) ([1]; A2: pyrrole scaffold): 0.4

- Selectivity (thrombin/FXa) ([1]; A2: pyrrole scaffold): 14
Compound: N=C(N)c1ccc(Cn2cc(Cc3cccc(C(=N)N)c3)c(C(=O)N3CCOCC3)c2)cc1 [Compound No. A2-40, 4-(3-Aminoiminomethylbenzyl)-1-(4-aminoiminomethylbenzyl)-pyrrole-3-carboxylic acid morphorline amide bis trifluoroacetic acid salt]

Compound: CCOC(=O)c1cn(Cc2ccc(C(=N)N)cc2)cc1Cc1ccc(C(=N)N)cc1.O=C(O)C(F)(F)F.O=C(O)C(F)(F)F [Compound No. A2-42]
- Selectivity (thrombin/FXa) ([1]; A2: pyrrole scaffold): 4.7

Compound: CCOC(=O)c1cn(Cc2cccc(C(=N)N)c2)cc1-c1cccc(-c2ccccc2)c1.O=C(O)C(F)(F)F [Compound No. A2-51, Ethyl 4-(3-biphenyl)-1-(3-aminoiminomethylbenzyl)-pyrrole-3-carboxylate trifluoroacetic acid salt]
- Selectivity (thrombin/FXa) ([1]; A2: pyrrole scaffold): 0.08

Compound: CCOC(=O)c1cn(Cc2cccc(C(=N)N)c2)cc1-c1ccc(-c2ccccc2)cc1.O=C(O)C(F)(F)F [Compound No. A2-52, Ethyl 4-(4-biphenyl)-1-(3-aminoiminomethylbenzyl)-pyrrole-3-carboxylate trifluoroacetic acid salt]
- Selectivity (thrombin/FXa) ([1]; A2: pyrrole scaffold): 2.6

Compound: N=C(N)c1ccc(-c2ccccc2NC(=O)Nc2cccc(C(=N)N)c2)cc1.O=C(O)C(F)(F)F.O=C(O)C(F)(F)F [Compound No. A3-8]
- Selectivity (thrombin/FXa) ([1]; A3: bicyclic scaffold): 1.6

Compound: N=C(N)c1ccc(NC(=O)Nc2ccccc2-c2ccc(C(=N)N)cc2)cc1.O=C(O)C(F)(F)F.O=C(O)C(F)(F)F [Compound No. A3-9]
- Selectivity (thrombin/FXa) ([1]; A3: bicyclic scaffold): 0.04

Compound: N=C(N)c1ccc(NC(=O)Nc2ccccc2-c2cccc(C(=N)N)c2)cc1.O=C(O)C(F)(F)F.O=C(O)C(F)(F)F [Compound No. A3-10]
- Selectivity (thrombin/FXa) ([1]; A3: bicyclic scaffold): 0.82

Compound: N=C(N)c1cccc(NC(=O)Nc2ccccc2-c2cccc(C(=N)N)c2)c1.O=C(O)C(F)(F)F.O=C(O)C(F)(F)F [Compound No. A3-11]
- Selectivity (thrombin/FXa) ([1]; A3: bicyclic scaffold): 6.4

Compound: N=C(N)c1cccc(-c2ccccc2NS(=O)(=O)Cc2ccccc2)c1.O=C(O)C(F)(F)F [Compound No. A3-21]
- Selectivity (thrombin/FXa) ([1]; A3: bicyclic scaffold): 0.73

Compound: C[n+]1cccc(-c2ccc(NC(=O)C3=C(c4cccc(C(=N)N)c4)CCC3)cc2)c1.O=C([O-])C(F)(F)F [Compound No. A3-26, 4-(N-methylpyridinium-3-yl)-phenyl 2-(3-aminoiminomethylphenyl)-cyclopenetene-1-carboxamide trifluoroacetic acid salt]
- Selectivity (thrombin/FXa) ([1]; A3: bicyclic scaffold): 670
- pKi ([2]; A3: bicyclic scaffold): 6.68
- Selectivity (trypsin/FXa) ([3]; A3: bicyclic scaffold): 10

Compound: CC(=N)N1CC[C@H](Oc2ccc(C(Cc3ccc4ccc(C(=N)N)cc4c3)C(=O)O)cc2)C1 (stereo partly drawn) [DX9065a]
- oral absorption [4]: capable of being absorbed orally

Compound: N=C(N)c1ccc(O)c(CN2CC[C@H](NS(=O)(=O)c3ccc(-c4cccnc4)s3)C2=O)c1 [RPR-130737]
- effect as a Fxa inhibitor [5]: excellent effect as a Fxa inhibitor
- selectivity against thrombin, trypsin and the like enzymes [5]: excellent selectivity against thrombin, trypsin and the like enzymes

Compound: N=C(N)c1cccc(C2=NOC(Cc3nn[nH]n3)(C(=O)Nc3ccc(-c4ccccc4S(N)(=O)=O)cc3)C2)c1 (stereo not drawn) [SK-549]
- effect as a Fxa inhibitor [5]: excellent effect as a Fxa inhibitor
- selectivity against thrombin, trypsin and the like enzymes [5]: excellent selectivity against thrombin, trypsin and the like enzymes

Compound: CC(=N)N1CCC(Oc2ccc(N(Cc3ccc4ccc(C(=N)N)cc4c3)S(=O)(=O)CC(=O)O)cc2)CC1 [YM-60828]
- oral absorption [4]: capable of being absorbed orally

Compound: CN1CCN=C1c1cccc(Oc2nc(Oc3cc(C(=N)N)ccc3O)c(F)c(N(C)CC(=O)O)c2F)c1 [ZK-80719]
- oral absorption [4]: capable of being absorbed orally

Compound: CC(C)c1nc2c(C(=O)O)cc(NC3CCN(C(=N)N)CC3)cc2n1Cc1ccc2ccc(C(=N)N)cc2c1 [ZK-807369]
- oral absorption [4]: capable of being absorbed orally

Compound: Ethyl 4-(3-aminoiminomethylbenzyl)-1-aminoiminomethylbenzyl)-pyrrole-3-carboxylate bis trifluoroacetic acid salt [Compound No. A2-37]
- Selectivity (thrombin/FXa) ([1]; A2: pyrrole scaffold): 7.0
